Results: patent publication US9408856B2, “Topical steroidal formulations” (Temple University—Of The Commonwealth System of Higher …, priority 2008, dated 2016)
“And” between values parts separate entries of the source, which are not always exact repeats. Equal entries are not always repeated.

Assays:
[1] = tested on: TPA-stimulated epidermal DNA synthesis in mouse epidermis; test: TPA-induced epidermal DNA synthesis in mouse epidermis, transdermal fluasterone; type: in vivo, CD-1 mice; settings: 20 h
[2] = tested on: TPA-stimulated epidermal DNA synthesis in mouse epidermis; test: as above; type: in vivo, CD-1 mice; settings: TPA 2 μg (back) after carbitol vehicle only; 20 h; single mice and group mean
Description: In dose-response experiments the anti-hyperplastic efficacy of fluasterone in TPA-treated mouse epidermis to determine bioavailability following different routes of administration was measured. Mice were treated with a single dose of fluasterone (either orally, subcutaneously, or transdermally) followed by a single application of TPA to the shaved back one hour latter. In case of transdermal administration, fluasterone is applied in a topical formulation to the shaved abdomen to allow for systemic absorption to the back of the animal. Twenty hours after TPA application, the mice are injected with 60 μCi of [3H] thymidine, sacrificed 20 minutes later, and a 2×2 cm2 of skin from the shaved back is excised and processed for the determination of the amount of [3H] thymidine incorporated per unit of epidermal DNA. (Hennings et. al., Cancer Res. 28:543-552, 1968).
Female CD-1 mice, 40-43 days old, were obtained from Charles River Laboratories, Kingston, N.Y. The mice were housed two per cage in plastic shoebox cages on Absorbdri bedding with 12 hours of alternating light and dark in the Central Animal Facility. The mice had ad libitum access to Purina 5015 chow and acidified tap water (pH S 2.6). The mice were allowed to acclimate to the facility for approximately two weeks prior to use in an experiment. […]
The mice were weighed, marked with magic marker on the tail, and shaved on the back and the abdomen one day prior to treatment. Only those mice showing no hair regrowth were used in the experiment. Fluasterone was applied to the shaved abdomen one hour before TPA was applied to the shaved back. The mice were anesthetized and on their backs prior to topical application of TPA. […]
The mice were anesthetized with Isoflurane, and then were given an intramuscular injection of 0.1 mL solution of ketamine (50 mg/kg), xylazine (10 mg/kg) and atropine (0.1 mg/kg). Approximately 10 minutes after the i.m. injection (after the mice could not turn over when placed on their backs), the mice were treated with 5 μL of a 12.5 mg/mL fluasterone/carbitol solution to give a dose of 2.5 mg/kg. The mice were anesthetized and on their backs for approximately 30 minutes after application of fluasterone/carbitol solution. One hour after the application of fluasterone/carbitol solution, 2 μg of TPA dissolved in. 0.2 mL of acetone was applied to the shaved area on the back of each mouse. […]
The mice were anesthetized with Isoflurane, and then were given an intramuscular injection of 0.1 mL solution of ketamine (50 mg/kg), xylazine (10 mg/kg) and atropine (0.1 mg/kg). Approximately 10 minutes after the i.m. injection (after the mice could not turn over when placed on their backs), the mice were treated with 2.5 μl, of a 12.5 mg/mL fluasterone/carbitol solution to give a dose of 1.25 mg/kg. The mice were anesthetized and on their backs for approximately 30 minutes after application of fluasterone/carbitol solution. One hour after the application of fluasterone/carbitol solution, 2 μg of TPA dissolved in 0.2 mL of acetone was applied to the shaved area on the back of each mouse.
The mice were anesthetized with Isoflurane, and then were given an intramuscular injection of 0.1 mL solution of ketamine (50 mg/kg), xylazine (10 mg/kg) and atropine (0.1 mg/kg). Approximately 10 minutes after the i.m. injection (after the mice could not turn over when placed on their backs), the mice were treated with 10 μL of a 12.5 mg/mL fluasterone/Cremophor EL solution to give a dose of 5 mg/kg. The mice were anesthetized and on their backs for approximately 30 minutes after application of fluasterone/Cremophor EL solution. One hour after the application of fluasterone/Cremophor EL solution, 2 μg of TPA dissolved in 0.2 mL of acetone was applied to the shaved area on the back of each mouse.
The mice were anesthetized with Isoflurane, and then were given an intramuscular injection of 0.1 mL solution of ketamine (50 mg/kg), xylazine (10 mg/kg) and atropine (0.1 mg/kg). […]

[3] = TPA 2 μg (back) after Cremophor EL vehicle only, single mice
[4] = TPA 2 μg (back) after Cremophor EL:ethanol (50:50 v/v) vehicle only, single mice
[5] = TPA 2 μg (back) after Tween 80:ethanol (50:50 v/v) vehicle only, single mice
[6] = TPA 2 μg (back) after carbitol vehicle only, single mice
[7] = TPA 2 μg (back) after ethanol:limonene:isopropyl myristate (81:15:4) vehicle only, single mice
[8] = TPA 2 μg (back) after ethanol:limonene:isopropyl myristate (81:15:4) vehicle only, single mice and group mean
[9] = TPA 2 μg (back) after ethanol:water:Tween 80 (76:19:5) vehicle only, single mice
[10] = TPA 2 μg (back) after ethanol:water:Tween 80 (76:19:5) vehicle only, single mice and group mean

`CCCCCCCCCCCCCC(=O)O[C@@H]1[C@@H](C)[C@@]2(O)[C@@H](C=C(CO)C[C@]3(O)C(=O)C(C)=C[C@@H]23)[C@@H]2C(C)(C)[C@]12OC(C)=O` [TPA, 12-O-tetradecanoylphorbol-13-acetate, reference compound] was tested, and the corrected cpm [1, 3] was 16,842 cpm and 13,849 cpm, the cpm [1, 3] was 16,877 cpm and 13,884 cpm and the “μg DNA/0.2 mL” value [1, 3] was 28.7 μg DNA/0.2 mL and 30.4 μg DNA/0.2 mL. The “cpm/μg DNA” value ([1]; TPA 2 μg (back) after Cremophor EL vehicle only, single mice and group mean) was 586.8 cpm/μg DNA and 455.6 cpm/μg DNA and 521.2 ± 92.8 cpm/μg DNA, the corrected cpm [1, 4] was 54,709 cpm and 54,308 cpm and the cpm [1, 4] was 54,744 cpm and 54,343 cpm. For the same compound, the “μg DNA/0.2” value [1, 4] was 36.9 μg DNA/0.2 and 35.7 μg DNA/0.2, the “cpm/μg DNA” value ([1]; TPA 2 μg (back) after Cremophor EL:ethanol (50:50 v/v) vehicle only, single mice and group mean) was 1,482.6 cpm/μg DNA and 1,521.2 cpm/μg DNA and the corrected cpm [1, 5] was 4,276 cpm and 3,114 cpm. For the same compound, the cpm [1, 5] was 4,301 cpm and 3,139 cpm, the “μg DNA/0.2” value [1, 5] was 17.5 μg DNA/0.2 and 18.6 μg DNA/0.2 and the “cpm/μg DNA” value ([1]; TPA 2 μg (back) after Tween 80:ethanol (50:50 v/v) vehicle only, single mice and group mean) was 244.3 cpm/μg DNA and 167.4 cpm/μg DNA. The corrected cpm [1, 6] was 6,729 cpm and 7,496 cpm, the cpm [1, 6] was 6,764 cpm and 7,531 cpm and the “μg DNA/0.2 mL” value [1, 6] was 20.3 μg DNA/0.2 mL and 21.2 μg DNA/0.2 mL. The corrected cpm [1, 7] was 8,545 cpm and 11,109 cpm, the cpm [1, 7] was 8,574 cpm and 11,138 cpm and the “cpm/μg DNA” value [1, 8] was 277.4 cpm/μg DNA and 322.0 cpm/μg DNA. For the same compound, the “μg DNA/0.2 mL” value [1, 8] was 30.8 μg DNA/0.2 mL and 34.5 μg DNA/0.2 mL, the corrected cpm [1, 9] was 7,274 cpm and 6,557 cpm and the cpm [1, 9] was 7,303 cpm and 6,586 cpm. The “cpm/μg DNA” value [1, 10] was 208.4 cpm/μg DNA and 186.3 cpm/μg DNA, the “μg DNA/0.2 mL” value [1, 10] was 34.9 μg DNA/0.2 mL and 35.2 μg DNA/0.2 mL and the “cpm/μg DNA” value [2] was 331.5 cpm/μg DNA and 353.6 cpm/μg DNA and 342.6 ± 15.6 cpm/μg DNA.
